Results reported in article PMC4151877 (Science (New York, N.Y.), 2014).

What was measured:
NaAtm1 [1] = molecular target: T1, NaAtm1 (Novosphingobium aromaticivorans, UniProt Q2G506); assay: ligand-stimulated ATPase activity, Michaelis-Menten type analysis; type: biochemical; settings: ATP hydrolysis; stimulating ligand varied
T1 sequence (Q2G506 1-608): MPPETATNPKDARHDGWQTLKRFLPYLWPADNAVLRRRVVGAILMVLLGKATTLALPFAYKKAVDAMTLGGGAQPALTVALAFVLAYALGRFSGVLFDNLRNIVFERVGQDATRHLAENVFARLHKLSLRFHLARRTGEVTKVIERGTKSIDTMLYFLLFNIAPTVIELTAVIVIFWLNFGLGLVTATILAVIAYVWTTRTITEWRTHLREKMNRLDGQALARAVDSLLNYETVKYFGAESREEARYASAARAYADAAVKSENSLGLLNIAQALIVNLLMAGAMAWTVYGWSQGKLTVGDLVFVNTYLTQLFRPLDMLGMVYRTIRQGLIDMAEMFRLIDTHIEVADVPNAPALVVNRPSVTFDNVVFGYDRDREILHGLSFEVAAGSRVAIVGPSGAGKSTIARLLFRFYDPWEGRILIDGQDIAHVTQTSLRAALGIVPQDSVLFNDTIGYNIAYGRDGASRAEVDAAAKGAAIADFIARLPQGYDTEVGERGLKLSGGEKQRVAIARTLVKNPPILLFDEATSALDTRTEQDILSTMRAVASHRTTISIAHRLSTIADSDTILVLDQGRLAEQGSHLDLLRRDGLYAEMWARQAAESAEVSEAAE

NaAtm1 [2] = molecular target: T1, NaAtm1; assay: ligand-stimulated ATPase activity; type: biochemical; settings: ATP hydrolysis

N[C@@H](CCC(=O)N[C@@H](CS)C(=O)O)C(=O)O [γ-Glu-Cys]
Km (NaAtm1 [1]): γ-peptides GSH, γ-Glu-Cys, and ophthalmic acid

N[C@@H](CS)C(=O)NCC(=O)O [Cys-Gly]
ATPase stimulation (NaAtm1 [2]): exhibit stronger ATPase activities relative to Cys-Gly and mono-carboxylic acids

CSCC[C@H](N)C(=O)O [Met]
ATPase stimulation (NaAtm1 [2]): free amino acids Gly and Met to stimulate ATPase activity as effectively as GSH
